Measurements: the NIST ThermoML archive (doi:10.1021/je049721u)

Test: mn = molality of the nth substance listed, in mol/kg
Conditions: 101.3 kPa, Liquid; for speed of sound: Pulse-echo method

[Co+2].[O-][Cl+3]([O-])([O-])[O-].[O-][Cl+3]([O-])([O-])[O-] [cobalt(II) perchlorate] + CN(C)C=O
Conditions | mass density, 283.15 K [kg/m3] | mass density, 293.15 K [kg/m3] | mass density, 298.15 K [kg/m3] | mass density, 303.15 K [kg/m3] | mass density, 313.15 K [kg/m3] | mass density, 323.15 K [kg/m3] | mass density, 333.15 K [kg/m3] | speed of sound, 298.15 K [m/s]
m1 = 0.02921 | 964.275 | 954.785 | 950.026 | 945.273 | 935.722 | 926.127 | 916.489 | 1459.6
m1 = 0.03591 | 965.673 | 956.19 | 951.432 | 946.682 | 937.135 | 927.546 | 917.907 | –
m1 = 0.05081 | 968.79 | 959.315 | 954.565 | 949.82 | 940.29 | 930.711 | 921.09 | 1461.4
m1 = 0.05902 | 970.508 | 961.035 | 956.29 | 951.55 | 942.021 | 932.457 | 922.843 | 1462.1
m1 = 0.08863 | 976.733 | 967.283 | 962.549 | 957.809 | 948.308 | 938.77 | 929.181 | 1464.2
m1 = 0.1167 | 982.692 | 973.255 | 968.53 | 963.801 | 954.319 | 944.808 | 935.256 | 1466.5
m1 = 0.1455 | 988.838 | 979.414 | 974.697 | 969.98 | 960.52 | 951.034 | 941.509 | 1468.5
m1 = 0.1735 | 994.845 | 985.454 | 980.747 | 976.035 | 966.596 | 957.13 | 947.626 | 1471
m1 = 0.2007 | 1000.8 | 991.403 | 986.7 | 981.997 | 972.578 | 963.135 | 953.661 | 1472.8
m1 = 0.2305 | 1007.33 | 997.94 | 993.248 | 988.552 | 979.153 | 969.73 | 960.286 | 1475.4
m1 = 0.2574 | 1013.28 | 1003.91 | 999.223 | 994.536 | 985.152 | 975.753 | 966.326 | 1477.5
m1 = 0.284 | 1019.22 | 1009.86 | 1005.18 | 1000.5 | 991.143 | 981.766 | 972.371 | 1479.7

[Cu+2].[O-][Cl+3]([O-])([O-])[O-].[O-][Cl+3]([O-])([O-])[O-] [copper perchlorate] + CN(C)C=O
Conditions | mass density, 283.15 K [kg/m3] | mass density, 293.15 K [kg/m3] | mass density, 298.15 K [kg/m3] | mass density, 303.15 K [kg/m3] | mass density, 313.15 K [kg/m3] | mass density, 323.15 K [kg/m3] | mass density, 333.15 K [kg/m3] | speed of sound, 298.15 K [m/s]
m1 = 0.0362 | 965.762 | 956.275 | 951.52 | 946.762 | 937.212 | 927.62 | 917.988 | 1460
m1 = 0.04897 | 968.496 | 959.009 | 954.258 | 949.505 | 939.972 | 930.338 | 920.756 | –
m1 = 0.0604 | 970.938 | 961.462 | 956.715 | 951.971 | 942.44 | 932.866 | 923.242 | 1461.7
m1 = 0.07815 | 974.714 | 965.248 | 960.507 | 955.758 | 946.236 | 936.666 | 927.06 | 1463.2
m1 = 0.106 | 980.752 | 971.295 | 966.549 | 961.812 | 952.315 | 942.78 | 933.198 | 1465.3
m1 = 0.139 | 987.892 | 978.445 | 973.718 | 968.984 | 959.5 | 949.979 | 940.416 | 1467.8
m1 = 0.1737 | 995.495 | 986.058 | 981.338 | 976.613 | 967.148 | 957.653 | 948.12 | 1470.3
m1 = 0.2084 | 1003.16 | 993.739 | 989.024 | 984.309 | 974.859 | 965.385 | 955.869 | 1473.2
m1 = 0.2431 | 1010.94 | 1001.53 | 996.825 | 992.116 | 982.686 | 973.233 | 963.75 | 1475.7
m1 = 0.2746 | 1018.01 | 1008.7 | 1003.95 | 999.2 | 989.83 | 980.454 | 970.858 | 1478.3
m1 = 0.3065 | 1025.38 | 1015.99 | 1011.3 | 1006.6 | 997.202 | 987.786 | 978.345 | 1480.8
m1 = 0.3377 | 1032.62 | 1023.24 | 1018.54 | 1013.85 | 1004.46 | 995.056 | 985.638 | 1483.8

[Mn+2].[O-][Cl+3]([O-])([O-])[O-].[O-][Cl+3]([O-])([O-])[O-] [manganese (II) perchlorate] + CN(C)C=O
Conditions | mass density, 283.15 K [kg/m3] | mass density, 293.15 K [kg/m3] | mass density, 298.15 K [kg/m3] | mass density, 303.15 K [kg/m3] | mass density, 313.15 K [kg/m3] | mass density, 323.15 K [kg/m3] | mass density, 333.15 K [kg/m3] | speed of sound, 298.15 K [m/s]
m1 = 0.04109 | 966.326 | 956.852 | 952.107 | 947.355 | 937.821 | 928.242 | 918.616 | 1460.8
m1 = 0.05823 | 969.773 | 960.312 | 955.574 | 950.83 | 941.313 | 931.759 | 922.147 | –
m1 = 0.08396 | 974.96 | 965.52 | 960.793 | 956.059 | 946.568 | 937.04 | 927.465 | 1464.6
m1 = 0.1024 | 978.695 | 969.265 | 964.546 | 959.822 | 950.346 | 940.834 | 931.273 | –
m1 = 0.1233 | 982.926 | 973.513 | 968.799 | 964.082 | 954.629 | 945.142 | 935.612 | 1468.2
m1 = 0.1616 | 990.785 | 981.396 | 976.698 | 971.997 | 962.575 | 953.124 | 943.633 | 1471.4
m1 = 0.2007 | 998.895 | 989.531 | 984.846 | 980.162 | 970.768 | 961.357 | 951.918 | 1475
m1 = 0.2395 | 1007.03 | 997.69 | 993.019 | 988.351 | 978.996 | 969.623 | 960.225 | 1478.3
m1 = 0.2793 | 1015.47 | 1006.16 | 1001.5 | 996.842 | 987.519 | 978.179 | 968.812 | 1481.9
m1 = 0.3166 | 1023.51 | 1014.22 | 1009.58 | 1004.94 | 995.645 | 986.342 | 977.019 | 1485.6
m1 = 0.3529 | 1031.38 | 1022.11 | 1017.48 | 1012.85 | 1003.59 | 994.313 | 985.025 | 1488.9
m1 = 0.3885 | 1039.21 | 1029.96 | 1025.35 | 1020.73 | 1011.5 | 1002.27 | 993.029 | 1492.5
